Reference: US8911953B2, “TDF-related compounds and analogs thereof, analogs and bioactive fragments” (Thrasos Innovation, Inc., priority 2005, dated 2014)
Positions of bridges follow the written chain, without caps; N, C: chain ends. No end group written: not given here.

Legend:
Assay type in all cases: cell-based, human
HK-2 cells = test: Smad1 phosphorylation and nuclear translocation in HK-2 cells (immunofluorescence); details: 1.3 uM and 33 uM compound
Experimental: Phosphorylation and nuclear translocation of Smads occurs following the activation of Type I and Type II receptors and subsequent signal transduction to intracellular Smad targets. Phosphorylation and nuclear translocation of R-Smad in HK-2, vascular endothelial, human prostate or other cells by TDFRP compounds is assayed by immuno-fluorescent microscopy methods, using anti-phospho Smad 1/5 antibodies according to the procedure of H Aoki, M Fujii, T Imamura, K Yagi, K Takehara, M Kato and K Miyazono. J. of Cell Sci. 114, 1483-1489, 2001) and by Western blot analysis (FIGS. 2, 3, 18, 2X).
For example, HK-2, human proximal tubule cells are incubated in culture medium alone or exposed TDFRP or control compounds for one hour ten minutes at 37 degree C. BMP-7 served as a positive control in the assay. Each well is rinsed with 1 mL prewarmed medium. 1 mL per well of cold Acetone/Methanol mix (1:1) is added and incubated for 2 minutes at room temperature to fix the cells. Wells are washed with 1 mL of cold PBS and blocked with 1 mL blocking buffer (3% BSA, 1% goat serum in PBS) for 7 minutes. Wells are aspirated without disturbing the cells, and 500 uL/well primary antibody is added (anti-phospho-Smad 1) at 0.056 ug/mL concentration in 3% BSA in PBS (no goat serum). Cells are incubated overnight at 4 degrees C. […]

LNCaP = test: Cancer cell proliferation, tritiated thymidine incorporation; details: LNCaP cultured in vitro
Text: (§1) TDFRP Compound Inhibition of LNCaP Cancer Cell Proliferation. BMP-6 and a TDFRP compound (SEQ ID NO:45) inhibited the proliferation of prostate cancer cells (LNCaP and PC-3) cultured in vitro as detected by the incorporation of tritiated thymidine (a measure of cell proliferation.
(§2) Prostate cancer is one of the most common cancers in men. […] Moreover, it has been shown that BMP signals inhibit the growth and the proliferation of human prostate tumor cells by upregulating the cyclin-dependent kinase inhibitor (CDKI) p21 (CIP1/WAF1) and decreasing the activity of Cdk2, leading to hypophosphorylation of Rb proteins. TDFRP compounds have been screened in in vitro prostate and bladder cancer bioassays to assess growth inhibitory activity of the compounds (FIG. 3). ^3H-thymidine incorporation is used as a marker for cell proliferation activity in human prostate and bladder cancer cell lines. Cisplatin inhibits ^3H-thymidine incorporation, indicating a tumor-growth suppressive activity of cisplatin in both human prostate and bladder cancer cells. TDFRP compounds are assayed in these cancer cells for the ability to induce receptor-regulated Smad 1/5 phosphorylation in a dose-dependent manner (FIG.).
as §2, with “(FIGS. 3, 28).” for “(FIG. 3).”, “(FIGS. 3, 28).” for “(FIG.).”

PC-3 = test: as above; details: PC-3 cultured in vitro
Text: as §1, §2
as §2, with “(FIGS. 3, 28).” for “(FIG. 3).”, “(FIGS. 3, 28).” for “(FIG.).”

## CYFDDSSNVLCKKYRS (disulfide 1-11 (inferred); not fully specified) [SEQ ID NO:45]
HK-2 cells
  Smad1 phosphorylation, activation and translocation in the nucleus: Smad1 phosphorylation, activation and translocation in the nucleus
LNCaP
  proliferation (incorporation of tritiated thymidine): inhibited
PC-3
  proliferation (incorporation of tritiated thymidine): inhibited
